According to PubChem BioAssay AID1963864 (Molecular Pharmacology Branch, DTP, NCI, 2024):

Tested on: KRAS PDC multicell spheroid viability
Assay: Anticancer human tumor 521955-158-R6-J3-PDC patient-derived pancreatic carcinoma cell line growth inhibition [KRAS2]
Details: for viability, T/C: stronger effect = lower value
Summary of the method: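 Combination screen of spheroid viability in tumor-cell co-cultures with endothelial (HUVEC) and mesenchymal stem cell stroma. Each agent was tested in half-log dilutions, topping at clinical Cmax or at 10 microM without a known Cmax.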

[1] = curve of first compound, second compound 0.0316 µM
[2] = curve of first compound, second compound 0.1 µM
[3] = curve of first compound, second compound 0.316 µM
[4] = curve of first compound, second compound 1 µM
[5] = curve of first compound, second compound 3.16 µM
[6] = second compound 0.0316 µM, first compound 0.0316 µM
[7] = second compound 0.0316 µM, first compound 0.1 µM
[8] = second compound 0.0316 µM, first compound 0.316 µM
[9] = second compound 0.0316 µM, first compound 1 µM
[10] = second compound 0.1 µM, first compound 0.0316 µM
[11] = second compound 0.1 µM, first compound 0.1 µM
[12] = second compound 0.1 µM, first compound 0.316 µM
[13] = second compound 0.1 µM, first compound 1 µM
[14] = second compound 0.316 µM, first compound 0.0316 µM
[15] = second compound 0.316 µM, first compound 0.1 µM
[16] = second compound 0.316 µM, first compound 0.316 µM
[17] = second compound 0.316 µM, first compound 1 µM
[18] = second compound 1 µM, first compound 0.0316 µM
[19] = second compound 1 µM, first compound 0.1 µM
[20] = second compound 1 µM, first compound 0.316 µM
[21] = second compound 1 µM, first compound 1 µM
[22] = second compound 3.16 µM, first compound 0.0316 µM
[23] = second compound 3.16 µM, first compound 0.1 µM
[24] = second compound 3.16 µM, first compound 0.316 µM
[25] = second compound 3.16 µM, first compound 1 µM
[26] = second compound 0.0316 µM, first compound 3.16 µM
[27] = second compound 0.0316 µM, first compound 10 µM
[28] = second compound 0.1 µM, first compound 3.16 µM
[29] = second compound 0.1 µM, first compound 10 µM
[30] = second compound 0.316 µM, first compound 3.16 µM
[31] = second compound 0.316 µM, first compound 10 µM
[32] = second compound 1 µM, first compound 3.16 µM
[33] = second compound 1 µM, first compound 10 µM
[34] = second compound 3.16 µM, first compound 3.16 µM
[35] = second compound 3.16 µM, first compound 10 µM
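Also: drug exposure lasted seven days.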
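For viability, T/C in this document: 100% = DMSO vehicle wells and lower means fewer viable cells.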

Row | Structure (SMILES) | IC50 [1] [µM] | IC50 [2] [µM] | IC50 [3] [µM] | IC50 [4] [µM] | IC50 [5] [µM] | viability, T/C [6] [%] | viability, T/C [7] [%] | viability, T/C [8] [%] | viability, T/C [9] [%] | viability, T/C [10] [%] | viability, T/C [11] [%] | viability, T/C [12] [%] | viability, T/C [13] [%] | viability, T/C [14] [%] | viability, T/C [15] [%] | viability, T/C [16] [%] | viability, T/C [17] [%] | viability, T/C [18] [%] | viability, T/C [19] [%] | viability, T/C [20] [%] | also measured
1 | CCN1CCN(Cc2ccc(Nc3ncc(F)c(-c4cc(F)c5nc(C)n(C(C)C)c5c4)n3)nc2)CC1 + C=CC(=O)N1CCN(c2nc(OCC3CCCN3C)nc3c2CCN(c2cccc4cccc(C)c24)C3)CC1CC#N | > 1 | > 1 | > 1 | > 1 | < 0.00316 | 76 | 76.1 | 82.8 | 95.1 | 81.4 | 85.7 | 82.9 | 98.8 | 76.5 | 77.2 | 87.8 | 91.9 | 71.3 | 65.2 | 79.9 | viability, T/C (second compound 0.0316 µM, first compound 0.00316 µM): 94.4%; viability, T/C (second compound 0.0316 µM, first compound 0.01 µM): 81.9%; viability, T/C (second compound 0.1 µM, first compound 0.00316 µM): 88.3%; viability, T/C (second compound 0.1 µM, first compound 0.01 µM): 93.6%; viability, T/C (second compound 0.316 µM, first compound 0.00316 µM): 86.1%; viability, T/C (second compound 0.316 µM, first compound 0.01 µM): 86.4%; viability, T/C (second compound 1 µM, first compound 0.00316 µM): 72%; viability, T/C (second compound 1 µM, first compound 0.01 µM): 84.5%; viability, T/C [21]: 103%; viability, T/C (second compound 3.16 µM, first compound 0.00316 µM): 24.9%; viability, T/C (second compound 3.16 µM, first compound 0.01 µM): 26.4%; viability, T/C [22]: 25.9%; viability, T/C [23]: 17.1%; viability, T/C [24]: 15.3%; viability, T/C [25]: 4.09%
2 | COc1cc(Nc2ncc3c(n2)-c2ccc(Cl)cc2C(c2c(F)cccc2OC)=NC3)ccc1C(=O)O + C=CC(=O)N1CCN(c2nc(OCC3CCCN3C)nc3c2CCN(c2cccc4cccc(C)c24)C3)CC1CC#N | > 10 | > 10 | > 10 | > 10 | < 0.0316 | 95.3 | 86.4 | 87.3 | 88.1 | 92.2 | 91 | 87.7 | 91 | 86.2 | 87.4 | 79.8 | 78.1 | 78 | 66 | 82.2 | viability, T/C [26]: 89.5%; viability, T/C [27]: 83.6%; viability, T/C [28]: 92%; viability, T/C [29]: 97.9%; viability, T/C [30]: 85.9%; viability, T/C [31]: 86.4%; viability, T/C [21]: 76.1%; viability, T/C [32]: 82.7%; viability, T/C [33]: 77.3%; viability, T/C [22]: 25.6%; viability, T/C [23]: 25.7%; viability, T/C [24]: 18.3%; viability, T/C [25]: 53.4%; viability, T/C [34]: 59.4%; viability, T/C [35]: 29.2%
3 | COc1cc2nccc(Oc3ccc(NC(=O)C4(C(=O)Nc5ccc(F)cc5)CC4)cc3)c2cc1OC + C=CC(=O)N1CCN(c2nc(OCC3CCCN3C)nc3c2CCN(c2cccc4cccc(C)c24)C3)CC1CC#N | > 10 | > 10 | > 10 | > 10 | < 0.0316 | 103 | 111 | 98.6 | 107 | 106 | 102 | 117 | 116 | 103 | 99.3 | 96.5 | 109 | 81.1 | 80.8 | 83.3 | viability, T/C [26]: 126%; viability, T/C [27]: 128%; viability, T/C [28]: 143%; viability, T/C [29]: 133%; viability, T/C [30]: 138%; viability, T/C [31]: 140%; viability, T/C [21]: 82.3%; viability, T/C [32]: 123%; viability, T/C [33]: 111%; viability, T/C [22]: 43.3%; viability, T/C [23]: 44%; viability, T/C [24]: 33.7%; viability, T/C [25]: 15.4%; viability, T/C [34]: 1.6%; viability, T/C [35]: 17.8%
4 | CC(C)NCC(C(=O)N1CCN(c2ncnc3c2C(C)CC3O)CC1)c1ccc(Cl)cc1 (configuration not stated) |  |  |  |  |  |  |  |  |  |  |  |  |  |  |  |  |  |  |  |  | viability, T/C (compound 0.0316 µM): 94.6% [middle of 5 runs]; viability, T/C (compound 0.1 µM): 85.2% [middle of 5 runs]; viability, T/C (compound 0.316 µM): 83.1% [middle of 5 runs]; viability, T/C (compound 1 µM): 77% [middle of 5 runs]; viability, T/C (compound 3.16 µM): 76.1% [middle of 5 runs]; viability, T/C (compound 10 µM): 70.1% [middle of 5 runs]; IC50 (curve of compound): > 10 µM
